Assay results reported in PubChem BioAssay (NCI).
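All cell lines were grown in 96-well plates and treated with compound for 48 hours. TGI: total growth inhibition.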

Legend:
Assay in all cases: NCI anticancer screen, dose series, 48 h
786-0 renal = test system: 786-0 renal
A498 renal = test system: A498 renal
ACHN renal = test system: ACHN renal
BT-549 breast = test system: BT-549 breast
CAKI-1 renal = test system: CAKI-1 renal
COLO 205 colon = test system: COLO 205 colon
DU-145 prostate = test system: DU-145 prostate
EKVX NSCLC = test system: EKVX NSCLC
HCC-2998 colon = test system: HCC-2998 colon
HCT-116 colon = test system: HCT-116 colon
HCT-15 colon = test system: HCT-15 colon
HL-60(TB) leukemia = test system: HL-60(TB) leukemia
HOP-62 NSCLC = test system: HOP-62 NSCLC
HS 578T breast = test system: HS 578T breast
HT29 colon = test system: HT29 colon
IGROV1 ovarian = test system: IGROV1 ovarian
K-562 leukemia = test system: K-562 leukemia
KM12 colon = test system: KM12 colon
LOX IMVI melanoma = test system: LOX IMVI melanoma
MALME-3M melanoma = test system: MALME-3M melanoma
MCF7 breast = test system: MCF7 breast
MDA-MB-231 breast = test system: MDA-MB-231 breast
MDA-MB-435 = test system: MDA-MB-435
MDA-N = test system: MDA-N
MOLT-4 leukemia = test system: MOLT-4 leukemia
NCI-H226 lung = test system: NCI-H226 lung
NCI-H23 lung = test system: NCI-H23 lung
NCI-H460 lung = test system: NCI-H460 lung
NCI-H522 lung = test system: NCI-H522 lung
NCI/ADR-RES ovarian = test system: NCI/ADR-RES ovarian
OVCAR-3 ovarian = test system: OVCAR-3 ovarian
OVCAR-4 ovarian = test system: OVCAR-4 ovarian
OVCAR-5 ovarian = test system: OVCAR-5 ovarian
OVCAR-8 ovarian = test system: OVCAR-8 ovarian
PC-3 prostate = test system: PC-3 prostate
RPMI-8226 leukemia = test system: RPMI-8226 leukemia
RXF 393 renal = test system: RXF 393 renal
SF-268 CNS = test system: SF-268 CNS
SF-295 CNS = test system: SF-295 CNS
SK-MEL-2 melanoma = test system: SK-MEL-2 melanoma
SK-MEL-28 melanoma = test system: SK-MEL-28 melanoma
SK-MEL-5 melanoma = test system: SK-MEL-5 melanoma
SN12C renal = test system: SN12C renal
SNB-19 CNS = test system: SNB-19 CNS
SNB-75 CNS = test system: SNB-75 CNS
SR leukemia = test system: SR leukemia
SW-620 colon = test system: SW-620 colon
T-47D breast = test system: T-47D breast
TK-10 renal = test system: TK-10 renal
U251 CNS = test system: U251 CNS
UACC-257 melanoma = test system: UACC-257 melanoma
UACC-62 melanoma = test system: UACC-62 melanoma
UO-31 renal = test system: UO-31 renal

Measured: TGI

COc1ccc(-n2c(C)nc3ccc(NC4OCC(OC(C)=O)C(OC(C)=O)C4OC(C)=O)cc3c2=O)cc1 (stereo not drawn)
> 100 µM: all assays above
